Source: article PMC2365111, “Cytotoxicity of Poly(Phenolic)Sulfonates and Their Sodium Salts in L1210 Lymphoid Leukemia Cells” (Metal-Based Drugs, 1998)
In brackets after ≈: the same amount, converted by molar mass.

Tests used:
[1] = test system: KB epidermoid nasopharynx; test: Cytotoxicity, KB growth; assay type: cell-based, human
Description: (§1) CYTOTOXlCITY OF POLY(PHENOLIC)SULFONATES AND THEIR SODIUM SALTS IN L1210 LYMPHOID LEUKEMIA CELLS Fei Wang, Amy E. Warren, Cheryl R. Barnes and Iris H. Hall* Division of Medicinal Chemistry and Natural Products University of North Carolina Chapel Hill, N.C. […] Because ofthese properties it was surmised that these poly(phenolic)sulfonated compounds may have antineoplastic activity. METHODS Source of Compounds Test compounds were supplied by GeneLabs, Inc. [Redwood City, CA [Table 1]. Radioisotopes were obtained from New England Nuclear [Dupont, Boston, MA]. Substrates and co-factors were purchased om Sigma Chemical Co., [St Louis, MO]. Pentosan sulfate and other antineoplastic standards were obtained from Sigma Chemical Co. Tumor lines were obtained from American Type Culture Collection [Rockville, MD]. […] Cell numbers were determined by the trypan blue exclusion technique. Solid tumor cytotoxicity was determined by Leibovitz et al. 's method utilizing crystal violeeOH and read at 562 nm (Molecular Devices). Values for cytotoxicity were expressed as EDs0 g/ml, i.e. the concentration ofthe compound inhibiting 50% ofcell growth. […] Incorporation of 4C- formate (53.0 mCi/mmol) into pyrimidines was determined by the method of Christopherson et al.[13]. […] DNA polymerase Ot activity was determined in cytoplasmic extracts isolated by Eichler et aL's method. […] Messenger-, ribosomal- and transfer-RNA polymerase enzymes were isolated with different concentrations of ammonium sulfate; individual RNA polymerase activities were determined using 3H -UTP 16,17]. Ribonucleoside reductase activity was measured using 4C -CDP with dithioerythritol. […]

rRNA polymerase = target: T1, rRNA polymerase (Mus musculus, UniProt O35134); test: Ribosomal-RNA polymerase activity, L1210; assay type: biochemical; settings: 60 min, N=6
T1 construct: Messenger-, ribosomal- and transfer-RNA polymerase enzymes were isolated with different concentrations of ammonium sulfate; endogenous in cells; host or cells: L1210 murine lymphoid leukemia cells, ammonium sulfate fraction
Description: (§2) CYTOTOXlCITY OF POLY(PHENOLIC)SULFONATES AND THEIR SODIUM SALTS IN L1210 LYMPHOID LEUKEMIA CELLS Fei Wang, Amy E. Warren, Cheryl R. Barnes and Iris H. Hall* Division of Medicinal Chemistry and Natural Products University of North Carolina Chapel Hill, N.C. […] Because ofthese properties it was surmised that these poly(phenolic)sulfonated compounds may have antineoplastic activity. METHODS Source of Compounds Test compounds were supplied by GeneLabs, Inc. [Redwood City, CA [Table 1]. Radioisotopes were obtained from New England Nuclear [Dupont, Boston, MA]. Substrates and co-factors were purchased om Sigma Chemical Co., [St Louis, MO]. Pentosan sulfate and other antineoplastic standards were obtained from Sigma Chemical Co. Tumor lines were obtained from American Type Culture Collection [Rockville, MD]. 147 Vol. 5, No. 3, 1998 Cytotoxicity ofSodium Poly(Phenolic)Sulfonates in L1210 Lymphoid Leukemia Cells Table 1 Structures of Poly(phenolic)sulfonate Compounds O2R" n Compound R' R" n MW # G1-2041 H OH 8 1489.46 G1-2029 H OH 6 1117.09 G1-2030 H OH 4 744.73 GI-2021 CH3 ONa 8 1777.5 G1-2057 CH3 ONa 4 888.75 GI-2158 CH3 ONa 6 1333.13 GI-2063 OCH3 ONa 8 2001.65 G1-2042 OAc ONa 8 2017.73 Cytotoxicity Poly(phenolic)sulfonates were tested for cytotoxic activity by homogenizing drug in 0.05% Tween 80/H20 to give a mg/ml stock concentration. These solutions were sterilized by passing them through an acrodisc ([…]). The following cell lines were maintained by literature techniques: murine L1210 lymphoid leukemia, P-388 lymphocytic leukemia, rat UMR 106 osteosarcoma, human Tmolt3 acute lymphoblastic T cell leukemia, HUT-8 lymphoma, HeLa-S suspended cervical carcinoma, HeLa solid cervical carcinoma, KB epidermoid nasopharynx, A431 epidermoid carcinoma, colorectal adenocarcinoma SW480, HCT-8 ileocecal adenocarcinoma, lung bronchogenic MB-9812, A549 lung carcinoma, and glioma HS683. Geran et al.'s protocol was used to assess the cytotoxicity of the compounds and standards in each cell line. Cell numbers were determined by the trypan blue exclusion technique. Solid tumor cytotoxicity was determined by Leibovitz et al. 's method utilizing crystal violeeOH and read at 562 nm (Molecular Devices). Values for cytotoxicity were expressed as EDs0 g/ml, i.e. the concentration ofthe compound inhibiting 50% ofcell growth. A value of less than 4 µg/ml was required for significant activity ofgrowth inhibition. Incorporation Studies Incorporation of labeled precursors into 3H-DNA, 3H -RNA and 3H -protein for 10 L1210 cells was obtained. The concentration response for inhibition of DNA, RNA and protein synthesis of the compounds at 25, 50 and 100 l.tM was determined for 60 min incubations. Incorporation of 14C -glycine (53.0 mCi/mmol) into purines was obtained by the method of Cadman et al.[12]. Incorporation of 4C- formate (53.0 mCi/mmol) into pyrimidines was determined by the method of Christopherson et al.[13]. Enzyme Assays Inhibition of various enzyme activities was performed by first preparing the appropriate L1210 cell homogenates or subcellular fractions, then adding the drug to be tested during the enzyme assay. For the concentration response studies, inhibition of enzyme activity was determined at 25, 50 and 100 l.tM of compounds G1-2021, G1-2029, GI-2041 and G1-2063 after 60 min incubations. DNA polymerase Ot activity was determined in cytoplasmic extracts isolated by Eichler et aL's method. The DNA polymerase assay was described by Sedwick et al.[15] using 3H-TTP. Messenger-, ribosomal- and transfer-RNA polymerase enzymes were isolated with different concentrations of ammonium sulfate; individual RNA polymerase activities were determined using 3H -UTP 16,17]. Ribonucleoside reductase activity was measured using 4C -CDP with dithioerythritol. The deoxyribonucleotides 4C -dCDP were separated from the ribonucleotides by TLC on PEI plates. […]

Thymidine kinase = Thymidine kinase activity, L1210; assay type: biochemical, mouse; settings: 60 min, N=6
Description: as §2

[2] = test system: HeLa-S suspended cervical carcinoma; test: Cytotoxicity, HeLa-S3 growth; assay type: cell-based, human
Description: as §1, with “MO].” for “MO]. Pentosan sulfate and other antineoplastic standards were obtained from Sigma Chemical Co. Tumor lines were obtained from American Type Culture Collection [Rockville, MD].”, “16,17].” for “16,17]. Ribonucleoside reductase activity was measured using 4C -CDP with dithioerythritol.”

L1210 DNA = L1210 DNA strand scission, alkaline-sucrose gradient; assay type: cell-based, mouse; settings: 100 μM, 24 hr
Description: as §1, with “MO].” for “MO]. Pentosan sulfate and other antineoplastic standards were obtained from Sigma Chemical Co. Tumor lines were obtained from American Type Culture Collection [Rockville, MD].”, “16,17].” for “16,17]. Ribonucleoside reductase activity was measured using 4C -CDP with dithioerythritol.”

[3] = test system: HeLa solid cervical carcinoma; test: Cytotoxicity, solid HeLa growth; assay type: cell-based, human
Description: as §1, with “MO].” for “MO]. Pentosan sulfate and other antineoplastic standards were obtained from Sigma Chemical Co. Tumor lines were obtained from American Type Culture Collection [Rockville, MD].”, “16,17].” for “16,17]. Ribonucleoside reductase activity was measured using 4C -CDP with dithioerythritol.”

[4] = test system: colorectal adenocarcinoma SW480; test: Cytotoxicity, SW480 growth; assay type: cell-based, human
Description: as §2, with “Geran et al.'s protocol was used to assess the cytotoxicity of the compounds and standards in each cell line.” left out, “A value of less than 4 µg/ml was required for significant activity ofgrowth inhibition. Incorporation Studies Incorporation of labeled precursors into 3H-DNA, 3H -RNA and 3H -protein for 10 L1210 cells was obtained. The concentration response for inhibition of DNA, RNA and protein synthesis of the compounds at 25, 50 and 100 l.tM was determined for 60 min incubations. Incorporation of 14C -glycine (53.0 mCi/mmol) into purines was obtained by the method of Cadman et al.[12].” left out, “Enzyme Assays Inhibition of various enzyme activities was performed by first preparing the appropriate L1210 cell homogenates or subcellular fractions, then adding the drug to be tested during the enzyme assay. For the concentration response studies, inhibition of enzyme activity was determined at 25, 50 and 100 l.tM of compounds G1-2021, G1-2029, GI-2041 and G1-2063 after 60 min incubations.” left out, “The DNA polymerase assay was described by Sedwick et al.[15] using 3H-TTP.” left out, “dithioerythritol.” for “dithioerythritol. The deoxyribonucleotides 4C -dCDP were separated from the ribonucleotides by TLC on PEI plates.”

[5] = concentration inhibiting 50% of cell growth

SMILES	activity, in words [1]	ED50 [1, 5]	rRNA polymerase (rRNA polymerase; 25 μM)	Thymidine kinase (Thymidine kinase; 25 μM)	Thymidine kinase (Thymidine kinase; 50 μM)	rRNA polymerase (rRNA polymerase; 50 μM)	rRNA polymerase (rRNA polymerase; 100 μM)	growth suppression, in words [2]	L1210 DNA fragmentation, in words (L1210 DNA)	activity, in words [3]	ED50 [3, 5]	activity, in words [4]	ED50 [4, 5]	Thymidine kinase (Thymidine kinase; 100 μM)
O=S(=O)(O)c1cc2c(O)c(c1)Cc1cc(S(=O)(=O)O)cc(c1O)Cc1cc(S(=O)(=O)O)cc(c1O)Cc1cc(S(=O)(=O)O)cc(c1O)Cc1cc(S(=O)(=O)O)cc(c1O)Cc1cc(S(=O)(=O)O)cc(c1O)Cc1cc(S(=O)(=O)O)cc(c1O)Cc1cc(S(=O)(=O)O)cc(c1O)C2 [GI-2041]	active	2.60 µg/mL (≈ 1.75 µM)	112+5% of Control	116+5% of Control	104+5% of Control									
O=S(=O)(O)c1cc2c(O)c(c1)Cc1cc(S(=O)(=O)O)cc(c1O)Cc1cc(S(=O)(=O)O)cc(c1O)Cc1cc(S(=O)(=O)O)cc(c1O)Cc1cc(S(=O)(=O)O)cc(c1O)Cc1cc(S(=O)(=O)O)cc(c1O)C2 [GI-2029]			115+6% of Control	105+6% of Control	104+6% of Control	102+4% of Control	107+5% of Control	best activity	more moderated					
COc1c2cc(S(=O)(=O)[O-])cc1Cc1cc(S(=O)(=O)[O-])cc(c1OC)Cc1cc(S(=O)(=O)[O-])cc(c1OC)Cc1cc(S(=O)(=O)[O-])cc(c1OC)Cc1cc(S(=O)(=O)[O-])cc(c1OC)Cc1cc(S(=O)(=O)[O-])cc(c1OC)Cc1cc(S(=O)(=O)[O-])cc(c1OC)Cc1cc(S(=O)(=O)[O-])cc(c1OC)C2.[Na+].[Na+].[Na+].[Na+].[Na+].[Na+].[Na+].[Na+] [GI-2021]			122+7% of Control	112+7% of Control	96+5% of Control	120+5% of Control	123+4% of Control		more evident	effective	1.97 µg/mL	active	less than 2 μg/ml	76+4% of Control
